Assay [1] concerns the target N-methyl-D-aspartate (NMDA) receptor, MK-801 binding site. The assay can be described thus: radioligand displacement of [3H]-MK801. The conditions noted are these: read-out: IC50 (μM) ^a; MK-801 channel site.
For assay [2] the target is unchanged. The assay can be described thus: radioligand displacement of [3H]-MK801. The settings on record: read-out: Ki (μM) ^a; MK-801 channel site. For orientation: Loss of bound radioactivity is the signal in a displacement assay; it reports binding, not function.

For `N[C@]1(c2ccccc2Cl)CC[C@@H](O)CC1=O` [9b, (2S,5R)-HNK], in assay [1], the IC50 (in general, the point on the concentration scale where inhibition reaches its midpoint) was > 100 µM. Moreover, the Ki (commonly a dissociation constant, usually derived from enzyme kinetics or from competition with a known ligand) in assay [2] is > 100 µM.
`N[C@@]1(c2ccccc2Cl)CCC[C@@H](O)C1=O` [7a, (2R,6R)-HNK]: in assay [1], the IC50 was > 100 µM. For the same molecule, the Ki in assay [2] was > 100 µM.
On to `N[C@]1(c2ccccc2Cl)CCC[C@@H](O)C1=O` [4b, (2S,6R)-HNK], for which the IC50 in assay [1] was > 100 µM. Also, the inhibitory constant (Ki) in assay [2] was > 100 µM.
With `N[C@@]1(c2ccccc2Cl)CCC=CC1=O` [3a, (R)-DHNK], the IC50 in assay [1] is 59.7 µM. In addition, the inhibition constant Ki in assay [2] was 42.1 µM.
As to `N[C@]1(c2ccccc2Cl)CCC=CC1=O` [3b, (S)-DHNK], in assay [1], the IC50 turned out to be 42 µM. Besides, the Ki in assay [2] worked out at 29.7 µM.
With `CNC1(c2ccccc2Cl)CCCCC1=O` (racemic) [compound 1, (R,S)-ketamine], the half-maximal inhibitory concentration (IC50) in assay [1] came out at 0.35 µM. In assay [2], the Ki is 0.25 µM.
The like results for `N[C@]1(c2ccccc2Cl)C[C@@H](O)CCC1=O` [11b, (2S,4S)-HNK] were, in that order, > 100 µM and > 100 µM.
As to `N[C@@]1(c2ccccc2Cl)C[C@@H](O)CCC1=O` [10a, (2R,4S)-HNK], the IC50 in assay [1] is > 100 µM. Moreover, the inhibition constant (Ki) in assay [2] is > 100 µM.
Turning to `N[C@]1(c2ccccc2Cl)CCC[C@H](O)C1=O` [7b, (2S,6S)-HNK], the IC50 in assay [1] worked out at 10.4 µM. For the same molecule, in assay [2], the Ki is 7.34 µM.
Taken in the same sequence, the figures for `N[C@@]1(c2ccccc2Cl)CC[C@H](O)CC1=O` [9a, (2R,5S)-HNK] were > 100 µM and > 100 µM.
In the case of `N[C@@]1(c2ccccc2Cl)CC[C@@H](O)CC1=O` [8a, (2R,5R)-HNK], the IC50 in assay [1] was > 100 µM. In addition, the Ki in assay [2] was > 100 µM.
With `N[C@@]1(c2ccccc2Cl)CCC[C@H](O)C1=O` [4a, (2R,6S)-HNK], in assay [1], the IC50 is > 100 µM. In addition, the Ki in assay [2] was > 100 µM.
`N[C@]1(c2ccccc2Cl)C[C@H](O)CCC1=O` [10b, (2S,4R)-HNK]: the IC50 in assay [1] was > 100 µM. Moreover, in assay [2], the Ki was > 100 µM.
On to `N[C@@]1(c2ccccc2Cl)C[C@H](O)CCC1=O` [11a, (2R,4R)-HNK], for which, in assay [1], the IC50 was > 100 µM. Besides, the Ki in assay [2] is > 100 µM.
Regarding (+)-MK-801 [reference compound], the IC50 in assay [1] came to 0.00493 µM. The Ki in assay [2] came out at 0.00348 µM.
Taken in the same sequence, the figures for `N[C@]1(c2ccccc2Cl)CC[C@H](O)CC1=O` [8b, (2S,5S)-HNK] were > 100 µM and > 100 µM.

Values taken from article PMC5641405 (Organic letters, 2017).
